The test system of the assay is Mycobacterium tuberculosis. The assay is described as follows: Antimicrobial activity in INH-resistant Mycobacterium tuberculosis ATCC 35822 infected in human Primary macrophage cells assessed as reduction in intracellular growth of bacteria incubated for 4 days by CFU assay. In kind it is functional, organism-based. The following applies: ATCC 35822, Primary macrophage, 96 h.

As to `C=CC[C@@]12C[C@H](CC=C(C)C)C(C)(C)[C@@](CC=C)(C(=O)C(C(C)=O)=C1[O-])C2=O.[Na+]`, the IC50 turned out to be 15.9 µM.

In general, IC50 refers to the point on the concentration scale where inhibition reaches its midpoint.
